Data published in PubChem BioAssay AID1963850 (Molecular Pharmacology Branch, DTP, NCI, 2024).

Tested on: 192522-019-R-J2-PDC complex tumor spheroid viability
Test: Anticancer human tumor 192522-019-R-J2-PDC patient-derived colon adenocarcinoma cell line growth inhibition [POLQ]
Conditions: for IC50: curve of first compound; for viability, T/C: stronger effect = lower value
How it was run: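 Three-cell-type spheroids modelling solid tumor plus stroma served as the readout system; POL inhibitors were tested individually and in combination, concentration ranges set by clinical Cmax where known.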

[1] = second compound 0.0316 µM, first compound 0.0316 µM
[2] = second compound 0.0316 µM, first compound 0.1 µM
[3] = second compound 0.0316 µM, first compound 0.316 µM
[4] = second compound 0.0316 µM, first compound 1 µM
[5] = second compound 0.0316 µM, first compound 3.16 µM
[6] = second compound 0.0316 µM, first compound 10 µM
[7] = second compound 0.1 µM, first compound 0.0316 µM
[8] = second compound 0.1 µM, first compound 0.1 µM
[9] = second compound 0.1 µM, first compound 0.316 µM
[10] = second compound 0.1 µM, first compound 1 µM
[11] = second compound 0.1 µM, first compound 3.16 µM
[12] = second compound 0.1 µM, first compound 10 µM
[13] = second compound 0.316 µM, first compound 0.0316 µM
[14] = second compound 0.316 µM, first compound 0.1 µM
[15] = second compound 0.316 µM, first compound 0.316 µM
[16] = second compound 0.316 µM, first compound 1 µM
[17] = second compound 0.316 µM, first compound 3.16 µM
[18] = second compound 0.316 µM, first compound 10 µM
[19] = second compound 1 µM, first compound 0.0316 µM
[20] = second compound 1 µM, first compound 0.1 µM
[21] = second compound 1 µM, first compound 0.316 µM
[22] = second compound 1 µM, first compound 1 µM
[23] = second compound 1 µM, first compound 3.16 µM
[24] = second compound 1 µM, first compound 10 µM
[25] = second compound 3.16 µM, first compound 0.0316 µM
[26] = second compound 3.16 µM, first compound 0.1 µM
[27] = second compound 3.16 µM, first compound 0.316 µM
[28] = second compound 3.16 µM, first compound 1 µM
[29] = second compound 3.16 µM, first compound 3.16 µM
[30] = second compound 3.16 µM, first compound 10 µM
[31] = second compound 10 µM, first compound 0.0316 µM
[32] = second compound 10 µM, first compound 0.1 µM
[33] = second compound 10 µM, first compound 0.316 µM
[34] = second compound 10 µM, first compound 1 µM
[35] = second compound 10 µM, first compound 3.16 µM
[36] = second compound 10 µM, first compound 10 µM
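Further: spheroids exposed to drugs for seven days before reading.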
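Wherever viability, T/C is given: 100% = DMSO vehicle control viability in luminescence.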

## C#Cc1c(F)ccc2cc(O)cc(-c3ncc4c(N5CC6CCC(C5)N6)nc(OCC56CCCN5CC(F)C6)nc4c3F)c12 (centres undefined) + Nc1ccc(C#CCN(C(=O)Cc2ncc(C(F)(F)F)cc2C(F)(F)F)c2ccc(F)cc2)nn1
Second compound 0.0316 µM
  IC50: > 10 µM
Second compound 0.1 µM
  IC50: > 10 µM
Second compound 0.316 µM
  IC50: > 10 µM
Second compound 1 µM
  IC50: > 10 µM
Second compound 3.16 µM
  IC50: > 10 µM
Second compound 10 µM
  IC50: > 10 µM
[1]
  viability, T/C: 93.8%
[2]
  viability, T/C: 88.8%
[3]
  viability, T/C: 78.2%
[4]
  viability, T/C: 80.9%
[5]
  viability, T/C: 67.9%
[6]
  viability, T/C: 68.5%
[7]
  viability, T/C: 92.8%
[8]
  viability, T/C: 89.3%
[9]
  viability, T/C: 72.7%
[10]
  viability, T/C: 80.8%
[11]
  viability, T/C: 74.5%
[12]
  viability, T/C: 73.3%
[13]
  viability, T/C: 88.8%
[14]
  viability, T/C: 82.3%
[15]
  viability, T/C: 75.3%
[16]
  viability, T/C: 69.7%
[17]
  viability, T/C: 68.2%
[18]
  viability, T/C: 76.2%
[19]
  viability, T/C: 89.5%
[20]
  viability, T/C: 76.2%
[21]
  viability, T/C: 78.7%
[22]
  viability, T/C: 77.8%
[23]
  viability, T/C: 78%
[24]
  viability, T/C: 70.7%
[25]
  viability, T/C: 97.9%
[26]
  viability, T/C: 81.7%
[27]
  viability, T/C: 71.7%
[28]
  viability, T/C: 73.2%
[29]
  viability, T/C: 78.4%
[30]
  viability, T/C: 70.4%
[31]
  viability, T/C: 91.9%
[32]
  viability, T/C: 79.5%
[33]
  viability, T/C: 80.2%
[34]
  viability, T/C: 77.2%
[35]
  viability, T/C: 73.7%
[36]
  viability, T/C: 79.8%

## CCc1cc2c(N3CCc4c(cc(Cn5ccnc5)cc4-c4cn(C)nc4C(F)(F)F)C3=O)cc(C)nc2c(OC)n1 + Nc1ccc(C#CCN(C(=O)Cc2ncc(C(F)(F)F)cc2C(F)(F)F)c2ccc(F)cc2)nn1
Second compound 0.0316 µM
  IC50: > 10 µM
Second compound 0.1 µM
  IC50: > 10 µM
Second compound 0.316 µM
  IC50: > 10 µM
Second compound 1 µM
  IC50: > 10 µM
Second compound 3.16 µM
  IC50: > 10 µM
Second compound 10 µM
  IC50: > 10 µM
[1]
  viability, T/C: 102%
[2]
  viability, T/C: 99.6%
[3]
  viability, T/C: 88.1%
[4]
  viability, T/C: 73.7%
[5]
  viability, T/C: 63.6%
[6]
  viability, T/C: 65.4%
[7]
  viability, T/C: 101%
[8]
  viability, T/C: 93.6%
[9]
  viability, T/C: 77.1%
[10]
  viability, T/C: 76.9%
[11]
  viability, T/C: 79.5%
[12]
  viability, T/C: 73.1%
[13]
  viability, T/C: 105%
[14]
  viability, T/C: 100%
[15]
  viability, T/C: 89.4%
[16]
  viability, T/C: 75.6%
[17]
  viability, T/C: 72.8%
[18]
  viability, T/C: 73.4%
[19]
  viability, T/C: 103%
[20]
  viability, T/C: 94.2%
[21]
  viability, T/C: 90.8%
[22]
  viability, T/C: 76.8%
[23]
  viability, T/C: 70.8%
[24]
  viability, T/C: 69.2%
[25]
  viability, T/C: 101%
[26]
  viability, T/C: 95.9%
[27]
  viability, T/C: 89.7%
[28]
  viability, T/C: 81.6%
[29]
  viability, T/C: 90.6%
[30]
  viability, T/C: 81.3%
[31]
  viability, T/C: 102%
[32]
  viability, T/C: 98.7%
[33]
  viability, T/C: 89.1%
[34]
  viability, T/C: 83.4%
[35]
  viability, T/C: 92.8%
[36]
  viability, T/C: 81%
